In patent US20230181608A1, “NUTRIENT COMPOSITION, FOOD INCLUDING THE SAME AND USE OF THE NUTRIENT COMPOSITION” (Heilongjiang Feihe Dairy Co., Ltd., priority 2021, published 2023):

Assays:
Assay type in all cases: cell-based, newborn rats and mice
[1] = system: oligodendrocyte precursor cells (A2B5 positive cells); test: number of A2B5 positive cells (number of OPCs) after 12 DIVs, primary mixed culture of neurons and OL; conditions: for effect on the number of A2B5 positive cells (proliferation of oligodendrocyte precursor cells), in words: in comparison with the blank control group / with the components alone
Procedure: All experiments were approved by ethics, and the primary mixed culture of neurons and OL were carried out according to the following steps. Briefly, the forebrain of newborn rats and mice were dissociated with trypsin (Trypsin EDTA 1X, PAN BIOTECH) at 37° C. for 20 minutes. After addition of Dulbecco modified Eagle medium (DMEM, PAN BIOTECH) containing DNAase I Grade II (0.1 mg/ml, PAN BIOTECH) and 10% fetal bovine serum (FCS, GIBCO), the reaction was stopped. The cells were mechanically separated three times through a 10 ml pipette, and then centrifuged at 4° C. under 515 g for 10 minutes. Living cells were inoculated in 96-well plates (20000/well), which were pre-coated with poly-L-lysine (BD Falcon) and laminin (Sigma). The culture medium consists of Neurobasal (GIBCO) added with 2% B27 (GIBCO), 2 mM L-glutamine (L Glu, PAN BIOTECH), 2% P/S solution (PAN BIOTECH), 1% FCS and 10 ng/ml platelet-derived growth factor (PDGF-AA, PAN BIOTECH). The 96-well plates are stored in a humidified incubator, at a temperature of 37° C. and with an environment of air (95%) - CO2 (5%). […] Half of the medium were replaced every other day. A mixture or separate nutrition were added to the fresh medium (the nutrient composition prepared above, containing 2′-FL, choline and/or milk fat global membrane). After 12, 18 and 30 DIVs, the cells were fixed with a cold mixture of 95% ethanol and acetic acid (5%) for 5 minutes. The non-specific sites were then blocked for 15 minutes at room temperature with a phosphate buffered saline (PBS) solution containing 0.1% saponin (Sigma) and 1% FCS (GIBCO). […] Finally, a secondary goat anti-rabbit antibody (diluted 1/400, SIGMA, SAB460084) was used to co-incubate at room temperature for 1 h. ImageXpress equipped with LED lights (360/480/565 for excitation and 460/535/620 for emission) is used for 20× amplification. All images are acquired using the same settings. […] Cells were inoculated on a 96-well plate and cultured for a certain period of time. Half of the culture medium was replaced every other day. […] The blank control group, positive control group and sample intervention group were compared, respectively. […] See Table 2 below for specific experimental dosage.

[2] = system: oligodendrocyte precursor cells (MAG positive cells); test: number of MAG positive cells after 18 DIVs (OPC differentiation/myelination), primary mixed culture of neurons and OL; conditions: for effect on the number of MAG positive cells (myelination of oligodendrocyte precursor cells), in words: in comparison with the blank control group / with the components alone
Procedure: (§1) All experiments were approved by ethics, and the primary mixed culture of neurons and OL were carried out according to the following steps. Briefly, the forebrain of newborn rats and mice were dissociated with trypsin (Trypsin EDTA 1X, PAN BIOTECH) at 37° C. for 20 minutes. After addition of Dulbecco modified Eagle medium (DMEM, PAN BIOTECH) containing DNAase I Grade II (0.1 mg/ml, PAN BIOTECH) and 10% fetal bovine serum (FCS, GIBCO), the reaction was stopped. The cells were mechanically separated three times through a 10 ml pipette, and then centrifuged at 4° C. under 515 g for 10 minutes.
(§2) Living cells were inoculated in 96-well plates (20000/well), which were pre-coated with poly-L-lysine (BD Falcon) and laminin (Sigma). The culture medium consists of Neurobasal (GIBCO) added with 2% B27 (GIBCO), 2 mM L-glutamine (L Glu, PAN BIOTECH), 2% P/S solution (PAN BIOTECH), 1% FCS and 10 ng/ml platelet-derived growth factor (PDGF-AA, PAN BIOTECH). The 96-well plates are stored in a humidified incubator, at a temperature of 37° C. and with an environment of air (95%) - CO2 (5%).
(§3) A same number of cells were placed on 48-well plates, and then incubated for 12, 18 or 30 DIVs. Half of the medium were replaced every other day. A mixture or separate nutrition were added to the fresh medium (the nutrient composition prepared above, containing 2′-FL, choline and/or milk fat global membrane).
(§4) After 12, 18 and 30 DIVs, the cells were fixed with a cold mixture of 95% ethanol and acetic acid (5%) for 5 minutes. The non-specific sites were then blocked for 15 minutes at room temperature with a phosphate buffered saline (PBS) solution containing 0.1% saponin (Sigma) and 1% FCS (GIBCO).
At 18 DIVs, nerve cells were co-incubated with mouse monoclonal antibody MAG (dilution: 1/400, Millipore, MAB1567) and neurofilament protein antibody (dilution: 1/500, Sigma, N4142) for 2 h. Then a secondary goat […] antibody (dilution: 1/400, Sigma, SAB4600042) and a secondary goat anti-rabbit antibody (dilution: 1/400, SIGMA, SAB4600084) were used to co-incubate at room temperature for 1 h.
(§5) ImageXpress equipped with LED lights (360/480/565 for excitation and 460/535/620 for emission) is used for 20× amplification. All images are acquired using the same settings.
The differentiation of OPC into OL was evaluated by counting the number of MAG positive cells in cell culture. The results were expressed as the average number of cells per image and per well. The morphological maturity of MAG positive cells were assessed by measuring the average surface area of MAG positive cells in 18 DIV wells ([…]/image/well).
(§6) Cells were inoculated on a 96-well plate and cultured for a certain period of time. Half of the culture medium was replaced every other day. Varying concentrations of mixed or separate 2′-FL mixtures were added to the special culture medium for fresh primary cells (added on day 12, 18 and 30, respectively). 6 replicas for each sample. […] The blank control group, positive control group and sample intervention group were compared, respectively. The effects of milk fat global membrane, 2′-FL and choline, alone or in mixture, on OPC population, OL maturation and differentiation, myelin formation and neurite growth was determined by immunohistochemistry (MBP, NF, A2B5). See Table 2 below for specific experimental dosage.
In order to measure the effect of mixed nutrition or single nutrition treatment on OPC cell myelination, we evaluated the number of positive cells labelled MAG after 18 DIVs.

[3] = system: oligodendrocyte precursor cells (MBP positive cells); test: number of MBP positive cells after 30 DIVs (OPC/OL maturation), primary mixed culture of neurons and OL; conditions: for effect on the number of MBP positive cells (maturation of oligodendrocyte precursor cells), in words: in comparison with the blank control group / with the components alone
Procedure: as §1, §2, §3, §4
At 30 DIVs, nerve cells were co-incubated with mouse monoclonal antibody MBP (dilution: 1/1000, Novus, NBP1-05204) and neurofilament protein antibody (dilution: 1/500, Sigma, N4142) for 2 hours. Then a secondary goat anti-mouse antibody (dilution: 1/800, Sigma, SAB4600042) and a secondary goat anti-rabbit antibody (dilution: 1/400, SIGMA, SAB4600084) were used to co-incubate at room temperature for 1 h.
as §5
At 30 DIVs, the maturity of OL was estimated by calculating the number of MBP positive cells (average number of cells per imge, per well) and the average surface area of MBP positive cells at 30 DIVs ([…], per image, per well).
as §6
In order to measure the effect of mixed nutrition or single nutrition treatment on OPC cell maturation, we evaluated the number of MBP positive cells after 30DIVs.

[4] = high dosage: 2′-FL 20, milk fat globule membrane 55, choline 6.5 mg/ml (those present)
[5] = low dosage: 2′-FL 0.2, milk fat globule membrane 0.55, choline 0.065 mg/ml (those present)
[6] = medium dosage: 2′-FL 2, milk fat globule membrane 5.5, choline 0.65 mg/ml (those present)
[7] = low dosage: milk fat globule membrane 0.55 or choline 0.065 mg/ml

Row | Structure (SMILES) | increase of the number of A2B5 positive cells relative to the blank control group (Cell Experiment Example 1) [1, 4] | number of A2B5 positive cells (mean±standard deviation) [1, 4] | effect on the number of A2B5 positive cells (proliferation of oligodendrocyte precursor cells), in words [1] | number of A2B5 positive cells (mean±standard deviation) [1, 5] | increase of the number of A2B5 positive cells relative to the blank control group (Cell Experiment Example 1) [1, 6] | number of A2B5 positive cells (mean±standard deviation) [1, 6] | increase of the number of MAG positive cells relative to the blank control group (Cell Experiment Example 1) [2, 4] | number of MAG positive cells (mean±standard deviation) [2, 4] | effect on the number of MAG positive cells (myelination of oligodendrocyte precursor cells), in words [2] | number of MAG positive cells (mean±standard deviation) [2, 5] | increase of the number of MAG positive cells relative to the blank control group (Cell Experiment Example 1) [2, 6] | number of MAG positive cells (mean±standard deviation) [2, 6] | increase of the number of MBP positive cells relative to the blank control group (Cell Experiment Example 1) [3, 4] | number of MBP positive cells (mean±standard deviation) [3, 4] | effect on the number of MBP positive cells (maturation of oligodendrocyte precursor cells), in words [3] | number of MBP positive cells (mean±standard deviation) [3, 5] | increase of the number of MBP positive cells relative to the blank control group (Cell Experiment Example 1) [3, 6] | number of MBP positive cells (mean±standard deviation) [3, 6] | other results
1 | CC1O[C@@H](OC2[C@H](O[C@@H]3C(CO)O[C@H](O)C(O)[C@@H]3O)OC(CO)[C@H](O)[C@H]2O)C(O)[C@H](O)[C@@H]1O (stereo partly drawn) [2′-FL, 2′-fucosyl lactose] | 18.33 | 135.00±6.08 | may increase the number of A2B5 positive cells | 151.33±4.73 | 39.33 | 156.00 ±5.57 | 21.33 | 62.00±4.00 | could increase the number of MAG positive cells | 54.00±6.08 | 35.66 | 76.33±4.51 | 20.67 | 83.00±5.29 | can increase the number of MBP positive cells | 104.00±4.58 | 42.34 | 104.67±5.03 * * | –
2 | CC(C)CCC[C@@H](C)[C@H]1CC[C@H]2[C@@H]3CCC4=CC(=NO)CC[C@]4(C)[C@H]3CC[C@]12C [Olesoxime] | – | – | – | – | – | – | – | – | – | – | – | – | – | – | – | – | – | – | number of A2B5 positive cells (mean±standard deviation) ([1]; positive control, 300 nM): 171.33±3.51; number of MAG positive cells (mean±standard deviation) ([2]; positive control, 300 nM): 87.00±4.36; number of MBP positive cells (mean±standard deviation) ([3]; positive control, 300 nM): 124.00±3.61
3 | C[N+](C)(C)CCO.[Cl-] [choline, choline chloride] | -9 | 107.67±6.03 | may increase the number of A2B5 positive cells | 167.33±3.51 | 109 | 225.67±5.03 | 40.66 | 81.33±3.21 | could increase the number of MAG positive cells | 66.33±6.03 | 53.33 | 94.00±4.58 | 5.67 | 68.00±2.65 | can increase the number of MBP positive cells | 113.33±5.69 | 71.34 | 133.67±4.16 | increase of the number of A2B5 positive cells relative to the blank control group (Cell Experiment Example 1) [1, 7]: 50.66; increase of the number of MAG positive cells relative to the blank control group (Cell Experiment Example 1) [2, 7]: 25.66; increase of the number of MBP positive cells relative to the blank control group (Cell Experiment Example 1) [3, 7]: 51
